Data reported in patent publication US7223737B1, “Method of treating dry eye disorders using glycosides” (Alcon, Inc., priority 2004, dated 2007).

Tested on: human primary corneal epithelial cells
Experiment: mucin secretion assay using human primary corneal epithelial cells
Format: cell-based
Conditions: for Soluble Mucin Units/well: 45-minute incubation at 37° C., conditioned medium; for Total Mucin Units/well: soluble plus membrane-associated (NAC wash) mucin; for Stimulation Index: ratio of Total Mucin Units/well test solution to Control

CCCCCCCCCCCCO[C@@H]1O[C@H](CO)[C@@H](O[C@H]2O[C@H](CO)[C@@H](O)[C@H](O)[C@H]2O)[C@H](O)[C@H]1O [Dodecylmaltoside, n-Dodecyl-beta-D-maltoside]
Soluble Mucin Units/well (0.0001% DDM): 10 ± 0.6 Units/well
Total Mucin Units/well (0.0001% DDM): 18.7 ± 0.2 Units/well
Stimulation Index (0.0001% DDM): 1.23
Soluble Mucin Units/well (0.001% DDM): 24.7 ± 2.7 Units/well
Total Mucin Units/well (0.001% DDM): 32.3 ± 2.9 Units/well
Stimulation Index (0.001% DDM): 2.12
Soluble Mucin Units/well (0.01% DDM): 13.2 ± 0.5 Units/well
Total Mucin Units/well (0.01% DDM): 30.17 ± 0.6 Units/well
Stimulation Index (0.01% DDM): 1.98
